{
  "source": "paper PMC7179119",
  "about": "“A New Positron Emission Tomography Probe for Orexin Receptors Neuroimaging” (Molecules, 2020)",
  "key": {"[1]": {"target": "T1, Human recombinant OX2 receptors (Homo sapiens, UniProt O43614)", "T1 sequence (O43614 1-444)": "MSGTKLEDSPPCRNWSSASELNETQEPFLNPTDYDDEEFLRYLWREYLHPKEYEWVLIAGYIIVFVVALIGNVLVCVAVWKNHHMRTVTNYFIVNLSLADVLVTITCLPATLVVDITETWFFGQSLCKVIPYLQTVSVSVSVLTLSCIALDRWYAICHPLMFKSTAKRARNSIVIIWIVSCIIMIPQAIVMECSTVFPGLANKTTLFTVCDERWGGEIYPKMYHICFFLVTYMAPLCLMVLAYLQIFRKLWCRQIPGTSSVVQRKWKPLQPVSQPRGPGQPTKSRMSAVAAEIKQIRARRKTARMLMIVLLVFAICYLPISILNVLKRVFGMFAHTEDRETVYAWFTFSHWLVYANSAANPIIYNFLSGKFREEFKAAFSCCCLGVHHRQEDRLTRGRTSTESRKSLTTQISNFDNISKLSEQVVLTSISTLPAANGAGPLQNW", "test": "Human Orexin GPCR Binding (Agonist Radioligand) Assay, [125I] Orexin A competition", "experimental": "(§1) Radioligand competition binding assays were performed by Panlabs, Eurofins Pharma Discovery Services. Briefly, human recombinant orexin OX1 receptors expressed in CHO-S cells were used in modified HEPES buffer pH 7.4. […] Orexin A for 60 minutes at 25 °C. […] Orexin A specifically binding. Human recombinant OX2 receptors were used in modified HEPES buffer pH 7.4. […] Orexin A for 180 minutes at 25 °C. […] Orexin A specifically bound."}, "[2]": {"target": "T2, human recombinant orexin OX1 receptors (Homo sapiens, UniProt O43613)", "T2 construct": "host or cells: CHO-S cells", "T2 sequence (O43613 1-425)": "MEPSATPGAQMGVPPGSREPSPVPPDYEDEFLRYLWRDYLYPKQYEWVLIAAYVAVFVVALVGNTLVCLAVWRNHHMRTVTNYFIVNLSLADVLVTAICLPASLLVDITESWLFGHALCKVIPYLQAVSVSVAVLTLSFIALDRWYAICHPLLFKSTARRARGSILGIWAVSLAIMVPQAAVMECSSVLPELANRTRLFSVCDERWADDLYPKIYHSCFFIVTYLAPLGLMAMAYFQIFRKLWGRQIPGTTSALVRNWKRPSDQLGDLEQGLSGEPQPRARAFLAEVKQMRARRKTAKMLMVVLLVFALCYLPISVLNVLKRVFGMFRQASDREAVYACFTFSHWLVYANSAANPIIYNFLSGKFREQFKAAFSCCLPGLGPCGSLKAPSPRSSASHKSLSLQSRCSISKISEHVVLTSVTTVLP", "test": "Human Orexin GPCR Binding (Agonist Radioligand) Assay, [125I] Orexin A competition", "experimental": "as §1"}, "[3]": {"test": "Assessment of Lipophilicity (Log D; pH 7.4)", "format": "physicochemical", "experimental": "Log D was determined according to methods identical to those we previously reported."}, "[4]": {"system": "40 other CNS targets", "test": "Off-target binding (NIMH PDSP)", "details": "10 µM", "experimental": "Table S1. Off binding data of CW24.\nThe off-target binding assays were performed at PDSP with their standard protocol (https://pdspdb.unc.edu/pdspWeb/content/UNC-CH%20Protocol%20Book.pdf). In radioligand binding assays, CW24 was tested at a single concentration (10 µM) and in quadruplicate in 96-well plates. The binding assays were carried out in a final of volume of 125 µl per well in appropriate binding buffers. The hot ligand concentration is usually at a concentration close to the Kd (unless otherwise indicated). Total binding and nonspecific binding are determined in the absence and presence of 10 µM of the appropriate reference compound, respectively. In brief, plates are usually incubated at room temperature and in the dark for 90 mins. Reactions are stopped by vacuum filtration onto 0.3% polyethyleneimine (PEI) soaked 96-well filter mats using a 96-well Filtermate harvester, followed by three washes with cold wash buffers (for details, see Tables 2 to 24). Scintillation cocktail is then melted onto the microwave-dried filters on a hot plate and radioactivity is counted in a Microbeta counter.\nReceptor % Inhibition 1 % Inhibition 2 % Inhibition 3 % Inhibition 4 Mean±SD %"}, "[5]": {"target": "T3, Alpha1B (Homo sapiens, UniProt P35368)", "T3 construct": "NIMH PDSP", "T3 sequence (P35368 1-520)": "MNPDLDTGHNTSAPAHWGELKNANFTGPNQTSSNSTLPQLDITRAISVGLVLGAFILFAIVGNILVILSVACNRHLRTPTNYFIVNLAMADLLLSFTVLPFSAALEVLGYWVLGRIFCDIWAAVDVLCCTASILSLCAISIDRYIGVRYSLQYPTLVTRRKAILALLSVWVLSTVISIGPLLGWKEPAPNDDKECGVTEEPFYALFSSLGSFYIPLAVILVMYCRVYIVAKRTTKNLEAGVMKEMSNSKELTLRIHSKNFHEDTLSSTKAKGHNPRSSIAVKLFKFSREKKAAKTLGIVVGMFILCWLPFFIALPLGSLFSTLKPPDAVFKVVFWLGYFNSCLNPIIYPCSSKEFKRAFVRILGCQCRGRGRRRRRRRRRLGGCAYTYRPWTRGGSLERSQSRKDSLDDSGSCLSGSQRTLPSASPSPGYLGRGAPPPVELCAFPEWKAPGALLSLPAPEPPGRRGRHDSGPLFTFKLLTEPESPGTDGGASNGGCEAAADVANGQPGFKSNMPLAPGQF", "test": "PDSP off-target radioligand binding assay", "outline": "(§2)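 Compound tested at a single 10 µM concentration in quadruplicate in competition with radioligand near its Kd. Nonspecific binding was defined with 10 µM reference compound, incubation was 90 min at room temperature in the dark, and bound radioactivity was collected by filtration and scintillation counting to give % inhibition.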"}, "[6]": {"target": "T4, D4 (Homo sapiens, UniProt P21917)", "T4 construct": "NIMH PDSP", "T4 sequence (P21917 1-419)": "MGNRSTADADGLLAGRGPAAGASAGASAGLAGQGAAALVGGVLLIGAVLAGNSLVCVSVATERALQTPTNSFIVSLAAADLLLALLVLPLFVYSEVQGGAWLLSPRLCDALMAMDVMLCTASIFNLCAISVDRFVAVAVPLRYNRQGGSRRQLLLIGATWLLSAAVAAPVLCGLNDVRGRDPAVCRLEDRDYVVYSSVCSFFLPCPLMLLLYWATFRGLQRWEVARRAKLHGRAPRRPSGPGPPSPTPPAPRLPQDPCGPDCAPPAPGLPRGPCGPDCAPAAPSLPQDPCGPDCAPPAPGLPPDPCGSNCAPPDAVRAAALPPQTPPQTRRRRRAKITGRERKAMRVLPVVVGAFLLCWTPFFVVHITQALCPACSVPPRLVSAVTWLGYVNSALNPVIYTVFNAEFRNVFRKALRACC", "test": "PDSP off-target radioligand binding assay", "outline": "as §2"}, "[7]": {"details": "quadruplicate, read-out: Mean±SD % inhibition"}, "[8]": {"details": "replicate 1, read-out: % Inhibition 1"}, "[9]": {"details": "replicate 2, read-out: % Inhibition 2"}, "[10]": {"details": "replicate 3, read-out: % Inhibition 3"}, "[11]": {"details": "replicate 4, read-out: % Inhibition 4"}},
  "note": "Like-named read-outs stand apart in the source and are kept apart here.",
  "data": [
    {"smiles": "COc1ccnc(N2CCC3(CCCN(Cc4cn(C)c5ccccc45)C3=O)CC2)n1", "note": "[CW24]", "values": [
      {"measurement": "increase in potency compared to IPSU binding (OX2R)", "setting": "[1]; CW24 vs IPSU", "result": "~ 2 fold"},
      {"measurement": "IC50", "setting": "[1]; competition binding against [^125I] orexin, read-out: IC50 OX2R", "result": 1410, "unit": "nM"},
      {"measurement": "increase in potency compared to IPSU binding (OX1R)", "setting": "[2]; CW24 vs IPSU", "result": "~ 5 fold"},
      {"measurement": "IC50", "setting": "[2]; competition binding against [^125I] orexin, read-out: IC50 OX1R", "result": 253, "unit": "nM"},
      {"measurement": "logD", "setting": "[3]", "result": 2.3},
      {"measurement": "selectivity for OXRs compared to 40 other CNS targets", "setting": "[4]", "result": "selective"},
      {"measurement": "inhibition at 10 µM", "setting": "[5]; [7]", "result": "-20.7 ± 12.8", "unit": "%"},
      {"measurement": "inhibition at 10 µM", "setting": "[5]; [8]", "result": -6.11, "unit": "%"},
      {"measurement": "inhibition at 10 µM", "setting": "[5]; [9]", "result": -16.3, "unit": "%"},
      {"measurement": "inhibition at 10 µM", "setting": "[5]; [10]", "result": -36.7, "unit": "%"},
      {"measurement": "inhibition at 10 µM", "setting": "[5]; [11]", "result": -23.6, "unit": "%"},
      {"measurement": "inhibition at 10 µM", "setting": "[6]; [7]", "result": "67.2 ± 5.6", "unit": "%"},
      {"measurement": "inhibition at 10 µM", "setting": "[6]; [8]", "result": 73.2, "unit": "%"},
      {"measurement": "inhibition at 10 µM", "setting": "[6]; [9]", "result": 70, "unit": "%"},
      {"measurement": "inhibition at 10 µM", "setting": "[6]; [10]", "result": 60.3, "unit": "%"},
      {"measurement": "inhibition at 10 µM", "setting": "[6]; [11]", "result": 65.3, "unit": "%"}
    ]}
  ]
}
